# From patent US20090186761A1, “Use of bio-derived surfactants for mitigating damage to plants from pests” (Cleareso, LLC, priority 2008, published 2009)
# Assays:
# [1] = tested on: root weevil, Diaprepes abbreviatus; experiment: Root weevil larvae held 30 minutes in concentration series of compounds; type: in vivo; conditions: for Mortality of larvae: 30 minutes immersion, five larvae; for toxicity to larvae as judged: 0.1 to 5.0%, judged at 24 hours from black residue and activity
# Procedure: The criterion for toxicity with these larvae is the lack of nipping behavior and its consequent black residue from blood loss and the lack of spontaneous movement.
# Concentration Series. With the results from the time series above, larvae were held in different concentrations of STMB for 30 minutes. After 30 minutes, solutions were poured off and the trays wiped dry. Assessments were made at 24 or 48 hours with a few assessments at 72 hours dependent on effects. Treatments were: water or carbonated water as controls, and 0.1, 0.5, 1.0, 2.0, 3.0, 4.0 and 5.0% concentrations in either distilled water or carbonated water. Five larvae were used for each control and treatment. Pupae were not used in this assessment.
# The use of carbonated water appeared not to increase the efficacy of this treatment. After 48 hours, there appeared to be no difference between 5% STMB in water and 5% STMB in carbonated water. […] In general, 48 hours should be enough for this assessment. Lack of toxicity or high toxicity should show in the first 24 hours.
# [2] = Solubility of the test preparations in water (observations); type: physicochemical
# [3] = tested on: M. javanica; conditions: tomato root galling; cited from earlier work
# [4] = tested on: Meloidognye hapla; conditions: cited from earlier work; for toxicity to nematodes: in vitro; for kill of second stage juveniles: 50 ppm, 24 hours
compound,measurement,setting,value
"COC(=O)CCC(=O)OC [106-65-0, butanedioic acid, dimethyl ester]",Mortality of larvae,"[1]; 0.1%, 24 hours",2
same,toxicity to larvae as judged,[1],non-toxic
same,Mortality of larvae,"[1]; 1.0%, 24 hours",2
same,Mortality of larvae,"[1]; 3.0%, 24 hours",1
same,Mortality of larvae,"[1]; 5.0%, 24 hours",1
same,solubility of preparation,[2]; 0.1% in water,soluble
same,solubility of preparation,[2]; 1.0% in water,just soluble
same,solubility of preparation,[2]; 3.0% in water,not soluble
same,solubility of preparation,[2]; 5.0% in water,not soluble
"COC(=O)CCCCC(=O)OC [627-93-0, Dimethyl hexanedioate]",Mortality of larvae,"[1]; 0.1%, 24 hours",2
same,toxicity to larvae as judged,[1],non-toxic
same,Mortality of larvae,"[1]; 1.0%, 24 hours",1
same,Mortality of larvae,"[1]; 3.0%, 24 hours",2
same,Mortality of larvae,"[1]; 5.0%, 24 hours",3
same,solubility of preparation,[2]; 0.1% in water,soluble
same,solubility of preparation,[2]; 1.0% in water,not completely soluble
same,solubility of preparation,[2]; 3.0% in water,not completely soluble
same,solubility of preparation,[2]; 5.0% in water,not completely soluble
"COC(=O)CCCC(=O)OC [1119-40-0, pentanedioic acid, dimethyl ester]",Mortality of larvae,"[1]; 0.1%, 48 hours",3
same,Mortality of larvae,"[1]; 0.1%, 72 hours",3
same,Mortality of larvae,"[1]; 1.0%, 48 hours",1
same,Mortality of larvae,"[1]; 1.0%, 72 hours",2
same,Mortality of larvae,"[1]; 3.0%, 48 hours",0
same,Mortality of larvae,"[1]; 3.0%, 72 hours",0
same,Mortality of larvae,"[1]; 5.0%, 48 hours",1
same,Mortality of larvae,"[1]; 5.0%, 72 hours",2
same,survival of larvae after 30 minutes,[1]; at end of 30 minutes immersion,All larvae were alive
CCCCCCCCC(=O)OC [Methyl perlargonate],concentration producing reduced galling of plants,[3],0.8 microliters/liter
CCCCCCCC/C=C\CCCCCCCC(=O)O [Oleic acid],toxicity to nematodes,[4],relatively nontoxic
CCCCCCCCCC(=O)O [decanoic acid],kill of second stage juveniles,[4],killed all
CCCCCCCC/C=C\CCCCCCCC(=O)[O-].[K+] [potassium oleate],toxicity to nematodes,[4],relatively nontoxic
CCCCCCCCCCC(=O)O [undecanoic acid],kill of second stage juveniles,[4],killed all
Polyoxyethylene 10 tridecylether [24938-91-8],Mortality of larvae,"[1]; 0.1%, 24 hours",0
same,Mortality of larvae,"[1]; 0.1%, 48 hours",0
same,Mortality of larvae,"[1]; 0.1%, 72 hours",0
same,Mortality of larvae,"[1]; 1.0%, 24 hours",2
same,Mortality of larvae,"[1]; 1.0%, 48 hours",2
same,Mortality of larvae,"[1]; 1.0%, 72 hours",2
same,Mortality of larvae,"[1]; 3.0%, 24 hours",0
same,Mortality of larvae,"[1]; 3.0%, 48 hours",0
same,Mortality of larvae,"[1]; 3.0%, 72 hours",0
same,Mortality of larvae,"[1]; 5.0%, 24 hours",0
same,Mortality of larvae,"[1]; 5.0%, 48 hours",3
same,Mortality of larvae,"[1]; 5.0%, 72 hours",3
glycol pelargonate,concentration producing reduced galling of plants,[3],6.4 microliters/liter
